{"source": "paper PMC5361737", "about": "“Potent and Selective KDM5 Inhibitor Stops Cellular Demethylation of H3K4me3 at Transcription Start Sites and Proliferation of MM1S Myeloma Cells” (Cell Chemical Biology, 2017)", "key": {"EGLN1": {"target": "EGLN1 (Homo sapiens, UniProt Q9GZT9)", "experiment": "2-Oxoglutarate oxygenase assay panel, MALDI-TOF assay", "assay_type": "biochemical", "settings": "read-out: pIC50 EGLN1 (converted)"}, "dopamine transporter (h)": {"target": "T1, dopamine transporter (h) (Homo sapiens, UniProt Q01959)", "T1 construct": "CEREP", "T1 sequence (Q01959 whole entry)": "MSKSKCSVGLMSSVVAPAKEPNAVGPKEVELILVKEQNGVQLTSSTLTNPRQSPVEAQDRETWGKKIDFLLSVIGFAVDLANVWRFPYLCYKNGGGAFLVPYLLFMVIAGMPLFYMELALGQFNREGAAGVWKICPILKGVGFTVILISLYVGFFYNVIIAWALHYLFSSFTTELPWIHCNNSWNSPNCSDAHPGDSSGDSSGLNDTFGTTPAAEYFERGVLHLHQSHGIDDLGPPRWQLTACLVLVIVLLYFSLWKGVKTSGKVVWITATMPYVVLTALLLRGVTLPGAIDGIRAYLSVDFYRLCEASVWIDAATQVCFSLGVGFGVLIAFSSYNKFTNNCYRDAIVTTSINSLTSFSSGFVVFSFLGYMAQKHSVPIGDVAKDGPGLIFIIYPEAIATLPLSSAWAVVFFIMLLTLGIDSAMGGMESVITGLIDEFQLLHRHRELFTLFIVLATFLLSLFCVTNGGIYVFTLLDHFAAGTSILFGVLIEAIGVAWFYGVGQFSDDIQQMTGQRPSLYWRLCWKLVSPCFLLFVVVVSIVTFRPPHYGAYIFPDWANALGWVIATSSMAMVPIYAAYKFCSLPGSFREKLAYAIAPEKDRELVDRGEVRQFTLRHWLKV", "experiment": "Cerep Express Panel, antagonist radioligand", "assay_type": "binding", "settings": "read-out: % Inhibition of reference (10 µM)"}, "[1]": {"experiment": "Chemical stability in Phosphate Buffer Saline", "assay_type": "physicochemical", "settings": "PBS, 37°C, 24 hr"}, "[2]": {"experiment": "Liver microsomes stability", "assay_type": "in vitro ADME", "settings": "mouse liver microsomes"}, "other 2-OG oxygenases": {"system": "other 2-OG oxygenases", "experiment": "Selectivity panel, other 2-OG oxygenases (AlphaScreen or MALDI-TOF)", "assay_type": "biochemical", "settings": "AlphaScreen or MALDI-TOF enzymatic assays; read-out: no inhibition below (any of the other 2-OG oxygenases)"}, "CCR1 (h)": {"target": "T2, CCR1 (h) (Homo sapiens, UniProt P32246)", "T2 sequence (P32246 1-355)": "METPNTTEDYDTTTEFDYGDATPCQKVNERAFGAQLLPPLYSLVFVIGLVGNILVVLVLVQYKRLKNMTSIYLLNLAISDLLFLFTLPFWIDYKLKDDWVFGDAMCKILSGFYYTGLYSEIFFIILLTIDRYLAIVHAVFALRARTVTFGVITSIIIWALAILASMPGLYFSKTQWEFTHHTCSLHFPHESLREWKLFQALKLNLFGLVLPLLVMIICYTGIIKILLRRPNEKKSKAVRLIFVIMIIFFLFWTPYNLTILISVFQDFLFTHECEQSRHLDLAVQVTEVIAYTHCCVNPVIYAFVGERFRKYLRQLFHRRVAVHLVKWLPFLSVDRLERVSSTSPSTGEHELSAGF", "experiment": "Cerep Express Panel, agonist radioligand", "assay_type": "binding", "settings": "read-out: % Inhibition of reference (10 µM)"}, "BZD (central)": {"system": "BZD (central)", "experiment": "Cerep Express Panel, agonist radioligand", "assay_type": "binding"}, "[3]": {"system": "MM1S multiple myeloma cells", "experiment": "Fluorescent cell-viability assay (PrestoBlue)", "assay_type": "cell-based, human", "method": "MM1S myeloma cells were cultured in RMPI with 10% heat-inactivated FCS and 2 mM glutamine under standard conditions. […] Viability was measured using PrestoBlue reagent and normalized to a vehicle control. Data were plotted and IC50 values were calculated in Prism (v5.1)."}, "Cl- channel (GABA-gated)": {"system": "Cl- channel (GABA-gated)", "experiment": "Cerep Express Panel, antagonist radioligand", "assay_type": "binding"}, "NOP (ORL1) (h)": {"target": "NOP (ORL1) (h) (Homo sapiens, UniProt P41146)", "sequence (P41146 whole entry)": "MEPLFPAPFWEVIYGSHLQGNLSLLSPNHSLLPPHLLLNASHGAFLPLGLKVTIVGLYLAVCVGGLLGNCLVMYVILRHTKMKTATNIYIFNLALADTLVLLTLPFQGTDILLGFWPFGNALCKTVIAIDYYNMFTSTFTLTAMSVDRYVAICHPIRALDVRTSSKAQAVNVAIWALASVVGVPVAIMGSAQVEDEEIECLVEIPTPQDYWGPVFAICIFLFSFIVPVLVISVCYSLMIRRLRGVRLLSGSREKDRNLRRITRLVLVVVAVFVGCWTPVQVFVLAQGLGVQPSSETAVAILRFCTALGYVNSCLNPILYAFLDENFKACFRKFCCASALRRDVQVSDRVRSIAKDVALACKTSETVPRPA", "experiment": "Cerep Express Panel, agonist radioligand", "assay_type": "binding", "settings": "read-out: % Inhibition of reference (10 µM)"}, "ETA (h)": {"target": "ETA (h) (Homo sapiens, UniProt P25101)", "sequence (P25101 21-427)": "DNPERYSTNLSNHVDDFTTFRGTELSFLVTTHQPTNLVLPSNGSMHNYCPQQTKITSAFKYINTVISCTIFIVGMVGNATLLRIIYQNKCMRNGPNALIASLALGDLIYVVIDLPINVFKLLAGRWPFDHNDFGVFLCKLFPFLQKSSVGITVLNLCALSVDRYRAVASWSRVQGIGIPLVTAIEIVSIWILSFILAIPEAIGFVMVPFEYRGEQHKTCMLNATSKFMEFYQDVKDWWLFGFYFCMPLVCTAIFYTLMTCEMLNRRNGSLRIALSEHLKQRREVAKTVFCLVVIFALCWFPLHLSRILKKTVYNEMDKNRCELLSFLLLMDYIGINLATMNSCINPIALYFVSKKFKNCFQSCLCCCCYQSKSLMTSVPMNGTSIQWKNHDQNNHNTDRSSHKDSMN", "experiment": "Cerep Express Panel, agonist radioligand", "assay_type": "binding", "settings": "read-out: % Inhibition of reference (10 µM)"}, "5-HT3 (h)": {"target": "5-HT3 (h) (Homo sapiens, UniProt P46098)", "experiment": "Cerep Express Panel, antagonist radioligand", "assay_type": "binding", "settings": "read-out: % Inhibition of reference (10 µM)"}, "Caco-2 cells": {"system": "Caco-2 cells", "experiment": "Caco-2 cell permeability assay", "assay_type": "in vitro ADME", "method": "The higher concentration (60 μM) required for cellular activity could be ascribed to different reasons: first to the partial competition with the co-factor 2-OG, the physiological intracellular concentrations of which could be up to […] levels ([Thirstrup et al., 2011]); second to an estimated moderate-to-low cell permeability of KDOAM25. […] Together these effects could explain the partial loss of potency observed in the IF cell assay."}, "delta 2 (DOP) (h)": {"target": "delta 2 (DOP) (h) (Homo sapiens, UniProt P41143)", "experiment": "Cerep Express Panel, agonist radioligand", "assay_type": "binding", "settings": "read-out: % Inhibition of reference (10 µM)"}, "5-HT2A (h)": {"target": "5-HT2A (h) (Homo sapiens, UniProt P28223)", "sequence (P28223 whole entry)": "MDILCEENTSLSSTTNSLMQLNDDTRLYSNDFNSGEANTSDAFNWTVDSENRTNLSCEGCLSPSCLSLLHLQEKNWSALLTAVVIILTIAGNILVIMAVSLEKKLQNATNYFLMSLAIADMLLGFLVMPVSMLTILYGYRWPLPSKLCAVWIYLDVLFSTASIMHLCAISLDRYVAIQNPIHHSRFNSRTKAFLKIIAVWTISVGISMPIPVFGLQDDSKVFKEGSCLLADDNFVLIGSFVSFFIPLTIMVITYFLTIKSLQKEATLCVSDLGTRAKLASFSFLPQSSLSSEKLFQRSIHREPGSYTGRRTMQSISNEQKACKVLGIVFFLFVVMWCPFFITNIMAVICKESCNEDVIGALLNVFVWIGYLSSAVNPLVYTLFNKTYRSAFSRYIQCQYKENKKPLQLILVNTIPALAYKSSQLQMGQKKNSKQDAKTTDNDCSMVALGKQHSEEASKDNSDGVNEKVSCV", "experiment": "Cerep Express Panel, antagonist radioligand", "assay_type": "binding", "settings": "read-out: % Inhibition of reference (10 µM)"}, "PAMPA": {"experiment": "PAMPA", "assay_type": "in vitro ADME"}, "MT1 (ML1A) (h)": {"target": "MT1 (ML1A) (h) (Homo sapiens, UniProt P48039)", "sequence (P48039 whole entry)": "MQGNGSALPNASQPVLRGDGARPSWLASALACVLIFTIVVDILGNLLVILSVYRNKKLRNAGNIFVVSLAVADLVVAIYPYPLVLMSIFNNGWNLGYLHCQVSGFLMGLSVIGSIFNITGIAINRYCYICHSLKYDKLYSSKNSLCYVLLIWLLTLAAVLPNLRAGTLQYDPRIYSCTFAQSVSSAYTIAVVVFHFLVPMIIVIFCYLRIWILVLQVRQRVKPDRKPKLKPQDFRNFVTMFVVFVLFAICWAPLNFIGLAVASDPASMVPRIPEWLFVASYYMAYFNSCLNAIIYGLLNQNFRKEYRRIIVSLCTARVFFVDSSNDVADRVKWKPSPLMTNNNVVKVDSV", "experiment": "Cerep Express Panel, agonist radioligand", "assay_type": "binding", "settings": "read-out: % Inhibition of reference (10 µM)"}, "PHF8": {"target": "PHF8 (Homo sapiens, UniProt Q9UPP1)", "sequence (Q9UPP1 whole entry, species assumed)": "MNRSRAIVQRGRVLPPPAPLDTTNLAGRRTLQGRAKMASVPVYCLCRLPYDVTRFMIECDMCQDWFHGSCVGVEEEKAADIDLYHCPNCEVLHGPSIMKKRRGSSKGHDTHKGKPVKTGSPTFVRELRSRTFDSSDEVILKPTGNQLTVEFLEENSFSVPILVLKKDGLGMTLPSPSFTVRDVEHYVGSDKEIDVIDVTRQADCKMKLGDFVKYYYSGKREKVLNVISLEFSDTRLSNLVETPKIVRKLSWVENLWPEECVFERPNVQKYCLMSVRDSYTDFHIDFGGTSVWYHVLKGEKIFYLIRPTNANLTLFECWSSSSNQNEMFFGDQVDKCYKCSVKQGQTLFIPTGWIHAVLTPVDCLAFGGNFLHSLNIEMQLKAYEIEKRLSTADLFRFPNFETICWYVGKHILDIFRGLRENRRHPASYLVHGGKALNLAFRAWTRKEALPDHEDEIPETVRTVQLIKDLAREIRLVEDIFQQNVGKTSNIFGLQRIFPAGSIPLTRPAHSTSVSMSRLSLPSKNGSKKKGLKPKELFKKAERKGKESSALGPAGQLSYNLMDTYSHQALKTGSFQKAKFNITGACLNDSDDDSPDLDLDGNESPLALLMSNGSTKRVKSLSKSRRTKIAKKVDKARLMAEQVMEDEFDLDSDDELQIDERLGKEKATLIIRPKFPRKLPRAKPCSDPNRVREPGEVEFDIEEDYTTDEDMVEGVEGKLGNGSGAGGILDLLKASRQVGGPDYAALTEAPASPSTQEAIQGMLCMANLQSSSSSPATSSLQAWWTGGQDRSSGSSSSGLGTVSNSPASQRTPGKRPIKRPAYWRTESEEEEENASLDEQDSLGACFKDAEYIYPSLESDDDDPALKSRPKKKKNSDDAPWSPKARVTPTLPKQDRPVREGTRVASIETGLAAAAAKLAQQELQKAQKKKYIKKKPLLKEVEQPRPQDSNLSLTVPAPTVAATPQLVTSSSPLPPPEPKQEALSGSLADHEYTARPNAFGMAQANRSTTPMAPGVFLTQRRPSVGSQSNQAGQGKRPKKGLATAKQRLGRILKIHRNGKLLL", "experiment": "2-Oxoglutarate oxygenase assay panel, AlphaScreen assay", "assay_type": "biochemical", "settings": "± SEM"}, "M2 (h)": {"target": "M2 (h) (Homo sapiens, UniProt P08172)", "experiment": "Cerep Express Panel, antagonist radioligand", "assay_type": "binding", "settings": "read-out: % Inhibition of reference (10 µM)"}, "MINA53": {"target": "MINA53 (Homo sapiens, UniProt Q8IUF8)", "sequence (Q8IUF8 whole entry, species assumed)": "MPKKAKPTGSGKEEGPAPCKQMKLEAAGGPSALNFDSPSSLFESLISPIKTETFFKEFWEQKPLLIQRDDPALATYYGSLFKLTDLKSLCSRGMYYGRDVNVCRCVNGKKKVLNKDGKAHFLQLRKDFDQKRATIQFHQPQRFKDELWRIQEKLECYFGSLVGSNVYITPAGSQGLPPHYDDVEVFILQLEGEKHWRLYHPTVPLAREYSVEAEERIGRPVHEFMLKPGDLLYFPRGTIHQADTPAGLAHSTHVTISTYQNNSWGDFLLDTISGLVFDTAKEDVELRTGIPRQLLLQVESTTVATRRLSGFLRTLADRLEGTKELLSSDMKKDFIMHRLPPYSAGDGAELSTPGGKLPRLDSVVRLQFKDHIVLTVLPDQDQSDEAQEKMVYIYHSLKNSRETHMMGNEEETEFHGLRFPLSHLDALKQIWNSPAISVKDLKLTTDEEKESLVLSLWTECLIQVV", "experiment": "2-Oxoglutarate oxygenase assay panel, RapidFire MS assay", "assay_type": "biochemical", "settings": "read-out: pIC50 MINA53 (converted)"}, "alpha 2 (non-selective)": {"system": "alpha 2 (non-selective)", "experiment": "Cerep Express Panel, antagonist radioligand", "assay_type": "binding"}, "D1 (h)": {"target": "D1 (h) (Homo sapiens, UniProt P21728)", "sequence (P21728 whole entry)": "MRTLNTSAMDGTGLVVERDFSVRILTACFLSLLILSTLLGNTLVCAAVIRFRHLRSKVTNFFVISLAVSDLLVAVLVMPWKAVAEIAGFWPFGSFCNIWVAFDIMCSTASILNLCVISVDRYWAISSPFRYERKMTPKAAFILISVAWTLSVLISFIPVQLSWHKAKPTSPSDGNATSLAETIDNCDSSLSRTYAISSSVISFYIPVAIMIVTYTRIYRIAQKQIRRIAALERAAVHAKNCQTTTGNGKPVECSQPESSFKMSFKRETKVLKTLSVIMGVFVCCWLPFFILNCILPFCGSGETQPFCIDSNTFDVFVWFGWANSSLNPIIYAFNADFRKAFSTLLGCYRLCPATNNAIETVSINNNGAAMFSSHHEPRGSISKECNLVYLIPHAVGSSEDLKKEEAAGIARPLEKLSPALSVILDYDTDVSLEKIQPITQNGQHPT", "experiment": "Cerep Express Panel, antagonist radioligand", "assay_type": "binding", "settings": "read-out: % Inhibition of reference (10 µM)"}, "A1 (h)": {"target": "A1 (h) (Homo sapiens, UniProt P30542)", "sequence (P30542 whole entry)": "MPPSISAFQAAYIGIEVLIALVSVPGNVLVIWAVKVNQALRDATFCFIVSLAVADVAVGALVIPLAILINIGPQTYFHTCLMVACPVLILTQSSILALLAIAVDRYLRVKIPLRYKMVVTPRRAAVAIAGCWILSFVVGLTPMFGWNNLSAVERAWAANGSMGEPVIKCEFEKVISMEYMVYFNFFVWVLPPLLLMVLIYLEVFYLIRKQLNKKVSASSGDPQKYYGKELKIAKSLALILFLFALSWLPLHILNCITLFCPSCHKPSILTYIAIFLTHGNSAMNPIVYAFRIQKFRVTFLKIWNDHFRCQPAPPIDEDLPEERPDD", "experiment": "Cerep Express Panel, antagonist radioligand", "assay_type": "binding", "settings": "read-out: % Inhibition of reference (10 µM)"}, "CCK1 (CCKA) (h)": {"target": "CCK1 (CCKA) (h) (Homo sapiens, UniProt P32238)", "experiment": "Cerep Express Panel, agonist radioligand", "assay_type": "binding", "settings": "read-out: % Inhibition of reference (10 µM)"}, "beta 1 (h)": {"target": "beta 1 (h) (Homo sapiens, UniProt P08588)", "sequence (P08588 whole entry)": "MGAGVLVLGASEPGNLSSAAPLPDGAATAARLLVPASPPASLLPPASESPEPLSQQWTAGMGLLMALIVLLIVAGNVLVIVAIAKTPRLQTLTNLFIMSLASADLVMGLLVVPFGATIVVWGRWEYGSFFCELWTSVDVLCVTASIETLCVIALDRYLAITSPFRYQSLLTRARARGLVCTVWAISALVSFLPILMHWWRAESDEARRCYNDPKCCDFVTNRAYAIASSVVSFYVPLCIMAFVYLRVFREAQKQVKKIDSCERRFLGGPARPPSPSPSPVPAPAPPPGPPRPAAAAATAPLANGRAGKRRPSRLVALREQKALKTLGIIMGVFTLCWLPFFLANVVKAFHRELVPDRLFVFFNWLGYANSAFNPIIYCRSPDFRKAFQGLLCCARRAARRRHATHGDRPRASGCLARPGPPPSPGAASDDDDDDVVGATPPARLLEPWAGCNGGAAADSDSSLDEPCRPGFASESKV", "experiment": "Cerep Express Panel, agonist radioligand", "assay_type": "binding", "settings": "read-out: % Inhibition of reference (10 µM)"}}, "data": [{"molecule": "CCN(CCN(C)C)C(=O)CNCc1cc(C(N)=O)ccn1", "note": "[KDOAM-25]", "values": [{"measurement": "IC50", "setting": "EGLN1", "value": "> 100", "unit": "µM"}, {"measurement": "inhibition at 10 µM", "setting": "dopamine transporter (h)", "value": 13, "unit": "%"}, {"measurement": "hydrolysis of the amide, in words", "setting": "[1]", "value": "did not show any hydrolysis"}, {"measurement": "intrinsic clearance, in words", "setting": "[2]", "value": "low intrinsic clearance"}, {"measurement": "microsomal CLint", "setting": "[2]; read-out: MLM Clint", "value": 8.42, "unit": "µL/min/mg"}, {"measurement": "IC50", "setting": "other 2-OG oxygenases", "value": "≥ 4.8", "unit": "µM"}, {"measurement": "inhibition at 10 µM", "setting": "CCR1 (h)", "value": -8, "unit": "%"}, {"measurement": "% Inhibition of reference (10 µM)", "setting": "BZD (central)", "value": -42, "unit": "%"}, {"measurement": "IC50", "setting": "[3]; Homo sapiens, MM1.S, after a delay of 5–7 days", "value": "~30", "unit": "µM"}, {"measurement": "effect on cell viability, in words", "setting": "[3]; MM1S, after 3 days", "value": "little effect on cell viability"}, {"measurement": "% Inhibition of reference (10 µM)", "setting": "Cl- channel (GABA-gated)", "value": -2, "unit": "%"}, {"measurement": "inhibition at 10 µM", "setting": "NOP (ORL1) (h)", "value": -5, "unit": "%"}, {"measurement": "inhibition at 10 µM", "setting": "ETA (h)", "value": -6, "unit": "%"}, {"measurement": "inhibition at 10 µM", "setting": "5-HT3 (h)", "value": 8, "unit": "%"}, {"measurement": "Caco-2 A-B", "setting": "Caco-2 cells", "value": "< 0.76"}, {"measurement": "Caco-2 B-A", "setting": "Caco-2 cells", "value": "< 0.76"}, {"measurement": "Caco-2 permeability, in words", "setting": "Caco-2 cells; passive permeation", "value": "low permeability region"}, {"measurement": "inhibition at 10 µM", "setting": "delta 2 (DOP) (h)", "value": 2, "unit": "%"}, {"measurement": "inhibition at 10 µM", "setting": "5-HT2A (h)", "value": -6, "unit": "%"}, {"measurement": "PAMPA pH 5", "setting": "PAMPA; pH 5", "value": "< 0.3"}, {"measurement": "PAMPA pH 6.5", "setting": "PAMPA; pH 6.5", "value": "< 0.23"}, {"measurement": "PAMPA pH 7.4", "setting": "PAMPA; pH 7.4", "value": "< 0.23"}, {"measurement": "inhibition at 10 µM", "setting": "MT1 (ML1A) (h)", "value": 5, "unit": "%"}, {"measurement": "pIC50 PHF8", "setting": "PHF8", "value": "5.0 ± 0.057"}, {"measurement": "inhibition at 10 µM", "setting": "M2 (h)", "value": -3, "unit": "%"}, {"measurement": "IC50", "setting": "MINA53", "value": "> 100", "unit": "µM"}, {"measurement": "% Inhibition of reference (10 µM)", "setting": "alpha 2 (non-selective)", "value": -11, "unit": "%"}, {"measurement": "inhibition at 10 µM", "setting": "D1 (h)", "value": 10, "unit": "%"}, {"measurement": "inhibition at 10 µM", "setting": "A1 (h)", "value": -3, "unit": "%"}, {"measurement": "inhibition at 10 µM", "setting": "CCK1 (CCKA) (h)", "value": -3, "unit": "%"}, {"measurement": "inhibition at 10 µM", "setting": "beta 1 (h)", "value": 5, "unit": "%"}]}]}
